From US9890147B2 (BAYER PHARMA AKTIENGESELLSCHAFT, priority 2012, dated 2018)

target: T1, BRD4 (BD1) (Homo sapiens, UniProt O60885); test: Binding assay BRD4/acetylated peptide H4 (TR-FRET protein-protein interaction assay)
T1 construct: with relatively long constructs also being possible, preferably amino acids 44-168; made in house; host or cells: E. coli
Source text: Binding Assay BRD4/Acetylated Peptide H4 (“PRO”)
To assess the BRD4 binding of the substances described in the present application, their ability to inhibit the interaction between BRD4 (BD1) and acetylated histone H4 in a dose-dependent manner was quantified (Filippakopoulos et al., Cell, 2012, 149: 214-231).
For this purpose, use was made of a time-resolved fluorescence resonance energy transfer (TR-FRET) assay which measured binding between N-terminally His6-tagged BRD4 (BD1) (amino acids 67-152, with relatively long constructs also being possible, preferably amino acids 44-168) and a synthetic acetylated histone H4 (Ac—H4) peptide having the sequence GRGK(Ac)GGK(Ac)GLGK(Ac)GGAK(Ac)RHGSGSK-biotin. The recombinant BRD4 protein-produced according to Filippakopoulos et al., Cell, 2012, 149: 214-231—was expressed in E. coli and purified by (Ni-NTA) affinity and (Sephadex G-75) size exclusion chromatography. The Ac—H4 peptide is commercially available, for example from Biosyntan (Berlin, Germany). In a typical assay, 11 different concentrations of each substance (0.1 nM, 0.33 nM, 1.1 nM, 3.8 nM, 13 nM, 44 nM, 0.15 μM, 0.51 μM, 1.7 μM, 5.9 μM and 20 μM) were measured in duplicate on the same microtitre plate. To this end, 100-fold concentrated solutions in DMSO were prepared by serial dilution (1:3.4) of a 2 mM stock solution in a clear 384-well microtitre platte (Greiner Bio-One, Frickenhausen, Germany) 50 nl of these were transferred into a black test plate (Greiner Bio-One, Frickenhausen, Germany). The test was started by addition of 2 μl of a 2.5-fold concentrated BRD4 solution (final concentration usually 10 nM in the […] of the reaction volume) in aqueous assay buffer [50 mM HEPES pH 7.5. 50 mM sodium chloride (NaCl), 0.25 mM CHAPS and 0.05% serum albumin (BSA)] to the substances in the test plate. This was followed by a 10-minute incubation step at 22° C. to pre-equilibrate putative complexes between BRD4 and the substances.
The mixture was then incubated in the dark for one hour at 22° C. and then for at least 3 hours and at most overnight at 4° C. Formation of BRD4/Ac—H4 complexes was determined by measuring the resonance energy transfer from the streptavidin-Eu cryptate to the anti-6His-XL665 antibody in the reaction. To this end, the fluorescence emission was measured at 620 nm and 665 nm after excitation at 330-350 nm in a TR-FRET measuring device, for example a Rubystar or Pherastar (both from BMG Lab Technologies, Offenburg, Germany) or a Viewlux (Perkin-Elmer). The ratio of the emission at 665 nm and at […] was used as an indicator for the amount of BRD4/Ac—H4 complexes formed.
The data obtained (ratios) were normalized, with 0% inhibition corresponding to the mean of the measured values of a set of controls (usually 32 data points) comprising all reagents. Here, 50 nl of DMSO (100%) were used instead of test substances. An inhibition of 100% corresponded to the mean of the measured values of a set of controls (usually 32 data points) comprising all reagents except for BRD4. The IC50 was determined by regression analysis based on a 4-parameter equation (minimum, maximum, IC50, Hill; Y=Max+(Min−Max)/(1+(X/IC 50)^Hill)).

SMILES | IC50 [nM]
CNC(=O)N1N=C(c2ccc(Cl)cc2)c2ccc(N3CCCCC3=O)cc2CC1C (racemic) [Example 231, (±)-1-(4-chlorophenyl)-N,4-dimethyl-7-(2-oxopiperidin-1-yl)-4,5-dihydro-3H-2,3-benzodiazepine-3-carboxamide] | 3370
CNC(=O)N1N=C(c2ccc(Cl)cc2)c2ccc(N3CCOCC3=O)cc2CC1C (racemic) [Example 232, (±)-1-(4-chlorophenyl)-N,4-dimethyl-7-(3-oxomorpholin-4-yl)-4,5-dihydro-3H-2,3-benzodiazepine-3-carboxamide] | 2840
CNC(=O)N1N=C(c2ccc(Cl)cc2)c2ccc(N3CCOCC3)cc2CC1C (racemic) [Example 233, (±)-1-(4-chlorophenyl)-N,4-dimethyl-7-(morpholin-4-yl)-4,5-dihydro-3H-2,3-benzodiazepine-3-carboxamide] | 3450
CNC(=O)N1N=C(c2ccc(Cl)cc2)c2ccc(N3CCCC3)cc2CC1C (racemic) [Example 234, (±)-1-(4-chlorophenyl)-N,4-dimethyl-7-(pyrrolidin-1-yl)-4,5-dihydro-3H-2,3-benzodiazepine-3-carboxamide] | 3830
CNC(=O)N1N=C(c2ccc(Cl)cc2)c2ccc(N3CCS(=O)(=O)CC3)cc2CC1C (racemic) [Example 235, (±)-1-(4-chlorophenyl)-7-(1,1-dioxidothiomorpholin-4-yl)-N,4-dimethyl-4,5-dihydro-3H-2,3-benzodiazepine-3-carboxamide] | 5020
CNC(=O)N1N=C(c2ccc(N3CCN(C)C(=O)C3)cc2)c2ccc(N3CCN(C)C(=O)C3)cc2CC1C (racemic) [Example 238, (±)-N,4-dimethyl-7-(4-methyl-3-oxopiperazin-1-yl)-1-[4-(4-methyl-3-oxopiperazin-1-yl)phenyl]-4,5-dihydro-3H-2,3-benzodiazepine-3-carboxamide] | 130
CNC(=O)N1N=C(c2ccc(Cl)cc2)c2ccc(-c3ccc(F)cc3)cc2CC1C (racemic) [Example 239, (±)-1-(4-chlorophenyl)-7-(4-fluorophenyl)-N,4-dimethyl-4,5-dihydro-3H-2,3-benzodiazepine-3-carboxamide] | 11400
CNC(=O)N1N=C(c2ccc(Cl)cc2)c2ccc(-c3ccncc3)cc2CC1C (racemic) [Example 240, (±)-1-(4-chlorophenyl)-N,4-dimethyl-7-(pyridin-4-yl)-4,5-dihydro-3H-2,3-benzodiazepine-3-carboxamide] | 4500
CNC(=O)N1N=C(c2ccc(Cl)cc2)c2ccc(-c3ccc(O)nc3)cc2CC1C (racemic) [Example 241, (±)-1-(4-chlorophenyl)-7-(6-hydroxypyridin-3-yl)-N,4-dimethyl-4,5-dihydro-3H-2,3-benzodiazepine-3-carboxamide] | 2560
CNC(=O)N1N=C(c2ccc(Cl)cc2)c2ccc(-c3c(C)noc3C)cc2CC1C (racemic) [Example 242, (±)-1-(4-chlorophenyl)-7-(3,5-dimethyl-1,2-oxazol-4-yl)-N,4-dimethyl-4,5-dihydro-3H-2,3-benzodiazepine-3-carboxamide] | 2690
CNC(=O)N1N=C(c2ccc(-c3c(C)nn(C)c3C)cc2)c2cc(OC(F)(F)F)ccc2CC1C (racemic) [Example 249, (±)-N,4-dimethyl-8-(trifluoromethoxy)-1-[4-(1,3,5-trimethyl-1H-pyrazol-4-yl)phenyl]-4,5-dihydro-3H-2,3-benzodiazepine-3-carboxamide] | 30
CNC(=O)N1N=C(c2ccc(-c3cccnc3Cl)cc2)c2cc(OC)c(OC)cc2C[C@H]1C [Example 4.1, (R)-1-[4-(2-chloropyridin-3-yl)phenyl]-7,8-dimethoxy-N,4-dimethyl-4,5-dihydro-3H-2,3-benzodiazepine-3-carboxamide] | 780
CNC(=O)N1N=C(c2ccc(-c3cccnc3Cl)cc2)c2cc(OC)c(OC)cc2C[C@@H]1C [Example 4.2, (S)-1-[4-(2-chloropyridin-3-yl)phenyl]-7,8-dimethoxy-N,4-dimethyl-4,5-dihydro-3H-2,3-benzodiazepine-3-carboxamide] | 60

Further lines, results first:

IC50 [nM] | SMILES
2200 | CNC(=O)N1N=C(c2ccc(Cl)cc2)c2ccc(N3CCN(C)CC3)cc2CC1C (racemic) [Example 236, (±)-1-(4-chlorophenyl)-N,4-dimethyl-7-(4-methylpiperazin-1-yl)-4,5-dihydro-3H-2,3-benzodiazepine-3-carboxamide]
1070 | CNC(=O)N1N=C(c2ccc(N3CCN(C)CC3)cc2)c2ccc(N3CCN(C)CC3)cc2CC1C (racemic) [Example 237, (±)-N,4-dimethyl-7-(4-methylpiperazin-1-yl)-1-[4-(4-methylpiperazin-1-yl)phenyl]-4,5-dihydro-3H-2,3-benzodiazepine-3-carboxamide]
30 | CNC(=O)N1N=C(c2ccc(N3CCCS3(=O)=O)cc2)c2cc(OC)c(OC)cc2CC1C (racemic) [Example 244, (±)-1-[4-(1,1-Dioxido-1,2-thiazolidin-2-yl)phenyl]-7,8-dimethoxy-N,4-dimethyl-4,5-dihydro-3H-2,3-benzodiazepine-3-carboxamide]
5290 | CNC(=O)N1N=C(c2cc(N3CCN(C)CC3)c(Br)cc2Br)c2cc(OC)c(OC)cc2CC1C (racemic) [Example 252, (±)-1-[2,4-Dibromo-5-(4-methylpiperazin-1-yl)phenyl]-7,8-dimethoxy-N,4-dimethyl-4,5-dihydro-3H-2,3-benzodiazepine-3-carboxamide]
240 | CCC(=O)N1N=C(c2ccc(N3CCN(C)CC3)cc2)c2cc(OC)c(OC)cc2CC1C (racemic) [Example 255, (±)-7,8-dimethoxy-4-methyl-1-[4-(4-methylpiperazin-1-yl)phenyl]-3-(1-oxopropyl)-4,5-dihydro-3H-2,3-benzodiazepine]
610 | COc1cc2c(cc1OC)C(c1ccc(N3CCN(C)CC3)cc1)=NN(C(=O)C1CC1)C(C)C2 (racemic) [Example 256, (±)-3-(cyclopropylcarbonyl)-7,8-dimethoxy-4-methyl-1-[4-(4-methylpiperazin-1-yl)phenyl]-4,5-dihydro-3H-2,3-benzodiazepine]
2000 | COc1cc2c(cc1OC)C(c1ccc(N3CCN(C)CC3)cc1)=NN(C(=O)NC1CC1)C(C)C2 (racemic) [Example 257]
190 | CNC(=S)N1N=C(c2ccc(N3CCN(C)CC3)cc2)c2cc(OC)c(OC)cc2CC1C (racemic) [Example 258, (±)-7,8-Dimethoxy-N,4-dimethyl-1-[4-(4-methylpiperazin-1-yl)phenyl]-4,5-dihydro-3H-2,3-benzodiazepine-3-carbothioamide]
520 | COC(=O)N1N=C(c2ccc(N3CCN(C)CC3)cc2)c2cc(OC)c(OC)cc2CC1C (racemic) [Example 259, Methyl(±)-7,8-dimethoxy-4-methyl-1-[4-(4-methylpiperazin-1-yl)phenyl]-4,5-dihydro-3H-2,3-benzodiazepine-3-carboxylate]
6490 | CCOC(=O)N1N=C(c2ccc(N3CCN(C)CC3)cc2)c2cc(OC)c(OC)cc2CC1C (racemic) [Example 260, Ethyl (±)-7,8-dimethoxy-4-methyl-1-[4-(4-methylpiperazin-1-yl)phenyl]-4,5-dihydro-3H-2,3-benzodiazepine-3-carboxylate]
1490 | CCNC(=O)N1N=C(c2ccc(N3CCN(C)CC3)cc2)c2cc(OC)c(OC)cc2CC1C (racemic) [Example 261, (±)-N-Ethyl-7,8-dimethoxy-4-methyl-1-[4-(4-methylpiperazin-1-yl)phenyl]-4,5-dihydro-3H-2,3-benzodiazepine-3-carboxamide]
390 | COc1cc2c(cc1OC)C(c1ccc(N3CCN(C)CC3)cc1)=NN(C(C)=O)[C@@H](C)C2 (single isomer, unassigned) [Example 245.1]
